Reference: patent US7803350B2, “Radioactive arsenic-containing compounds and their uses in the treatment of tumors” (Institute of Nuclear Energy Research Rocaec, priority 2003, dated 2010)
Several values for one entry are separate records, joined by “and”; a condition that tells them apart may be missing. Identical values can stand only once.

Experiments:
[1] = Biodistribution test of radioactive arsenic trioxide in rats with liver tumors (gamma counter); type: in vivo
Procedure: Hepatic Artery Injection:
The hepatic artery was dissected from the hepatic tissue of the rats by surgery. A PE-10 tube was introduced into the hepatic artery, and the test solution containing neutron-irradiated arsenic trioxide as prepared in Example 1 was injected into the hepatic artery. The PE-10 tube was removed after injection, and a surgical thread was used to bind and fix the blood vessels, followed by suturing of the wound.
The test injection solution containing neutron-irradiated arsenic trioxide as prepared in Example 1 was injected into the tail vein using a syringe with needle no. 25.
(§1) A fixed amount of radioactive arsenic trioxide (radioactivity range: 2.77˜3.25 mCi/ml, concentration: 1 mg/ml, animal injection dose: 0.45 mg/kg) prepared in Example 1 was injected into the rats with liver tumors through the hepatic artery and tail vein, respectively.
(§2) The rats were sacrificed by taking a large amount of blood from the heart at hours 2, 4, 16, 24 and 48, respectively, after injection, and the blood, hearts, lungs, livers, spleens, kidneys, intestines, bladders, muscles, and tumors were removed. These tissues or organs were placed in respective tubes, and their irradiation intensity was measured by a gamma counter (Wallac 1470 WIZARD). The content percentage of arsenic trioxide per each gram of the tissue or organ was calculated using standard curve regression. There were two or three experimented rats in each experimental group.
Some of the organs and tissues (blood, kidneys and livers) were transferred to the Institute of Nuclear Energy Research for conducting Inductively Coupled Plasma Mass Spectrometry (ICP-MAS) so as to observe the biodistribution of arsenic trioxide in the tumors and organs or tissues.

[2] = Radiation absorption dose in organs or tissues and tumors (MIRD method, MIRDOSE 3); type: in vivo, rats; details: for Radiation absorption dose, Lung: rats with liver tumors
Procedure: as §1, §2
Radioactive arsenic trioxide was injected respectively into the tail vein and hepatic artery of the rats by I.V. and I.H. The dosage was calculated using MIRD method, and the residence time in each of the organs and the tumors was calculated using Excel software. Finally, the radiation absorption dose in each of the organs or tissues and the tumors was calculated using MIROSE 3 software.

[3] = tested on: N1-S1 rat hepatoma liver tumors; assay: Therapeutic effect assessment, continuous tail vein injection, rats with liver tumors; type: in vivo; set-up: key to Response: Increase in size of tumor (In %) is classified as “Poor Response”; decrease in size of tumor within 0%-40% is classified as “Mild Response”; decrease in size of tumor to 50% or more or disappearance of tumor is classified as “Good Response.”; details: for Effect on the inhibition of tumor growth / Survival of the group in week 8: continuous tail vein injection; for Response / Survival time: individual rats, continuous tail vein injection 0.45 mg/kg for two weeks
Description: (§3) The tumor cells for the establishment of the animal model with liver tumor were of a rat hepatoma cell line, N1-S-1, purchased from the American Type Culture Collection (ATCC, P.O. Box 1549, Manassas, Va. 20108 USA), and were subcultured to set up a Master Cell Bank and a Working Cell Bank.
(§4) The rat hepatoma cells, N1-S1, were suspended cells that were dispersed in Iscove's Modified Dulbecco's Medium (IMDM) (GibcoBRL®) supplemented with 1% penicillin (GibcoBRL®) and 10% fetal bovine serum (GibcoBRL®), and were cultured in an incubator with 5% CO2, at 37° C.
(§5) When cultured to 1.5×10^6 cell/ml, 4×10^6 cell/0.06 ml of N1-S1 cells were sampled and then implanted into Spawn-Dawley male rats (5-week-old, 150 g) between the liver and liver capsule by surgery, and the wounds were closed by sutures. Rearing of the rats was continued for ten days, and ultrasonic scanning was used to detect any growth of liver tumor and tumor size. After scanning, animals that had developed liver tumors were used to conduct the experiments of tumor growth inhibition, and euthanasia was practiced on the rest of the rats.
The rats with liver tumors were given normal saline, an injection solution containing arsenic trioxide without neutron irradiation treatment (concentration: 1 mg/ml; animal injection dosage: 0.45 mg/kg), and the injection solution prepared in Example 1 which contained radioactive arsenic trioxide having subjected to neutron irradiation treatment (radioactivity range: 2.77˜3.25 mCi/ml; concentration: 1 mg/ml; and animal injection dosage: 0.45 mg/kg), respectively, via tail vein injection, and the injection was continued for two weeks.
(§6) Before injection, the size of the liver tumors was examined by ultrasonic scanning. Ultrasonic scanning was conducted in the first week, the second week, and the fifth week, respectively, after start of the injection so as to observe the change in size of the tumor. Finally, the rats were sacrificed for observing whether there was metastasis.

[4] = tested on: N1-S1 rat hepatoma liver tumors; assay: Therapeutic effect assessment, hepatic artery single injection, rats with liver tumors; type: in vivo; details: for Therapeutic effect on the tumors: hepatic artery single injection
Description: as §3, §4, §5
The blood vessels of the hepatic artery were dissected from the hepatic tissue of the rats by surgery, and normal saline, an injection solution containing arsenic trioxide without neutron irradiation treatment (concentration: 1 mg/ml; and animal injection dosage: 0.45 mg/kg), and the injection solution prepared in Example 1 which contained radioactive arsenic trioxide having subjected to neutron irradiation treatment (radioactivity range: 2.77˜3.25 mCi/ml; concentration: 1 mg/ml; and animal injection dosage: 0.45 mg/kg dose), were injected respectively via the hepatic artery in single injections.
as §6, with “injection” for “injection so as”

[5] = tested on: N1-S1 rat hepatoma liver tumors; assay: Therapeutic effect assessment, liver tumor direct injection, rats with liver tumors; type: in vivo; details: for Response / Survival time: individual rats, liver tumor direct injection 0.45 mg/kg once every week, twice in total; for Change of tumor size 4 weeks after injection: liver tumor direct injection
Description: as §3, §4, §5
The rats with liver tumors were subjected to surgery. After the locations of the liver tumors were found, the tumors were directly injected with normal saline, an injection containing arsenic trioxide without neutron irradiation treatment (concentration: 1 mg/ml; animal injection dosage: 0.45 mg/kg), and the injection prepared in Example 1 which contained radioactive arsenic trioxide having subjected to neutron irradiation treatment (radiation activity range: 2.77˜3.25 mCi/ml; concentration: 1 mg/ml of concentration; and animal injection dosage: 0.45 mg/kg), respectively, once every week, twice in total.
as §6, with “injection” for “injection so as”

[6] = tested on: acute promyelocytic leukemia; details: cited from earlier work
[7] = tested on: acute promyelocytic leukemia cell lines; details: cited from earlier work
[8] = individual rats, hepatic artery single injection 0.45 mg/kg
[9] = individual rats, hepatic artery single injection 0.45 mg/kg, 0.45 mg/kg

O=[76As]O[76As]=O (stereo not shown) [Radioactive arsenic trioxide, radioactive arsenic trioxide]
Contents of radioactive arsenic trioxide in the heart, the lung, and the spleen ([1]; 0.45 mg/kg, hepatic artery and tail vein injection, hours 2-48 (FIG. 3)): 1˜3 % ID/g | Residual contents in all the organs or tissues ([1]; 48 hours after injection, IV and IH (FIG. 3)): dropped | Time of peak content of radioactive arsenic trioxide in the liver tumor ([1]; hepatic artery injection, 0.45 mg/kg (FIG. 2)): between hours 2 and 4 | Time after which contents in the liver tumors by the two routes reached identical equivalent values ([1]; hepatic artery vs tail vein injection (FIG. 2)): 16 h | Contents in the bladder and urine relative to other tested organs ([1]; hour 4 after injection via hepatic artery and tail vein): second only to that in the tumor | Radiation absorption dose, Intestine ([2]; IH (hepatic artery injection)): 0.23 mGy/MBq | Radiation absorption dose, Kidney ([2]; IH (hepatic artery injection)): 0.28 mGy/MBq | Radiation absorption dose, Liver ([2]; IH (hepatic artery injection)): 0.21 mGy/MBq | Radiation absorption dose, Muscle ([2]; IH (hepatic artery injection)): 0.12 mGy/MBq | Radiation absorption dose, Spleen ([2]; IH (hepatic artery injection)): 0.95 mGy/MBq | Radiation absorption dose, Tumor ([2]; IH (hepatic artery injection)): 21 mGy/MBq | Radiation absorption dose, Lung ([2]; IH (hepatic artery injection)): 0.56 mGy/MBq | Radiation absorption dose, Intestine ([2]; IV (tail vein injection)): 0.16 mGy/MBq | Radiation absorption dose, Kidney ([2]; IV (tail vein injection)): 0.25 mGy/MBq | Radiation absorption dose, Liver ([2]; IV (tail vein injection)): 0.13 mGy/MBq | Radiation absorption dose, Muscle ([2]; IV (tail vein injection)): 0.06 mGy/MBq | Radiation absorption dose, Spleen ([2]; IV (tail vein injection)): 0.76 mGy/MBq | Radiation absorption dose, Tumor ([2]; IV (tail vein injection)): 4.26 mGy/MBq | Radiation absorption dose, Lung ([2]; IV (tail vein injection)): 0.47 mGy/MBq | Effect on the inhibition of tumor growth [3]: most noticeable | Survival of the group in week 8 [3]: all alive in week 8 | Response [3]: Good (decrease in size of tumor to 50% or more or disappearance of tumor is classified as “Good Response.”) | Survival time [3]: >56 days | Therapeutic effect on the tumors [4]: complete disappearance of the tumors in some of the animals 2 weeks after injection | Response [4, 8]: Good (decrease in size of tumor to 50% or more or disappearance of tumor is classified as “Good Response.”) | Survival time [4, 8]: >42 days | Tumor Size After injection Week 2 [4, 9]: Disappeared | Tumor Size After injection Week 5 [4, 9]: Disappeared | Response [5]: Good (decrease in size of tumor to 50% or more or disappearance of tumor is classified as “Good Response.”) | Survival time [5]: >30 days | Change of tumor size 4 weeks after injection [5]: the tumors in all of the animals shrank in 4 weeks of injection

arsenic trioxide [reference compound]
Effect on the inhibition of tumor growth [3]: not significant | Survival of the group in week 8 [3]: still alive in week 8 | Response ([3]; 0.45 mg/kg): Poor (3×) and Mild (decrease in size of tumor within 0%-40% is classified as “Mild Response”) (2×) | Survival time ([3]; 0.45 mg/kg): 14 day (2×) and 42 day and 7 day and 40 day | Therapeutic effect on the tumors [4]: not satisfactory | Response [4, 9]: Mild (decrease in size of tumor within 0%-40% is classified as “Mild Response”) (2×) and Poor (2×) | Survival time [4, 9]: >42 day (2×) and 36 day and 39 day | Survival time [5]: >30 days | Response ([5]; 0.45 mg/kg): Mild (decrease in size of tumor within 0%-40% is classified as “Mild Response”) and Poor and Good (decrease in size of tumor to 50% or more or disappearance of tumor is classified as “Good Response.”) | Change of tumor size 4 weeks after injection [5]: slightly smaller than the size of the tumors 1 week after injection, while the tumors in some of the animals still grew | Side effects (gastrointestinal disturbance, facial edema and cardiac toxicity) ([6]; low-dose, 0.08 mg/kg daily for 28 days intravenously): reduced | complete remission rate ([6]; patients with relapsed acute promyelocytic leukemia, intravenously 0.08 mg/kg daily for 28 days): 80% | complete remission (CR) rate ([6]; patients with relapsed acute promyelocytic leukemia, intravenously 10 mg/d): 90% | Concentrations inducing cell differentiation ([7]; low concentrations): 0.1 to 0.5 µmol/L | Concentrations triggering apoptosis ([7]; relatively high concentrations): 0.5 to 2 µmol/L
